Laboratory results: ChEMBL document CHEMBL3885861, “Open TG-GATES”

Species on record: Rattus norvegicus
Assay: Open TG-GATES - Regimen: Single
Type: toxicity, organism-based, Sprague-Dawley
Set-up: regimen Single, gender Male, age 6 weeks
Conditions: in vivo, po, route gavage; for APTT / Bas / Eos / Fbg / Hb / Ht / Lym / MCH / MCHC / MCV / Mono / Neu / PT / Plat / RBC / Ret / WBC: tissue Blood; for KIDNEY_L / KIDNEY_R / KIDNEY_TOTAL: tissue Kidney; for LIVER: tissue Liver; for A/G / ALP / ALT / AST / BUN / CRE / Ca / Cl / DBIL / GLC / IP / K / LDH / Na / PL / RALB / TBIL / TC / TG / TP / gamma-GTP: tissue Plasma
[1] = 0 mg/kg, 3 h, dose level Control
[2] = 0 mg/kg, 6 h, dose level Control
[3] = 0 mg/kg, 9 h, dose level Control
[4] = 0 mg/kg, 24 h, dose level Control
[5] = 100 mg/kg, 24 h, dose level Low

## CCCCNC(=O)NS(=O)(=O)c1ccc(C)cc1 [TOLBUTAMIDE]
[1]
  TERMINAL_BW: 203.9 g
  APTT: 16.5 s
  Bas: 0%
  Eos: 0.8%
  Fbg: 286.6 mg/dL
  Hb: 13.7 g/dL
  Ht: 42.1%
  Lym: 78.2%
  MCH: 21 pg
  MCHC: 32.5%
  MCV: 64.8 fL
  Mono: 2.8%
  Neu: 18%
  PT: 12.9 s
  Plat: 128.5 x10_4/uL
  RBC: 649.4 x10_4/ul
  Ret: 8.5%
  WBC: 86 x10_2/uL
  KIDNEY_L: 0.9 g
  KIDNEY_R: 0.9 g
  KIDNEY_TOTAL: 1.8 g
  LIVER: 9.1 g
  A/G: 0.9
  ALP: 1445.2 IU/L
  ALT: 43.8 IU/L
  AST: 73.6 IU/L
  BUN: 9.8 mg/dL
  CRE: 0.2 mg/dL
  Ca: 11 mg/dL
  Cl: 106.8 meq/L
  DBIL: 0.006 mg/dL
  GLC: 175 mg/dL
  IP: 8.9 mg/dL
  K: 4.1 meq/L
  LDH: 52.4 IU/L
  Na: 141.6 meq/L
  PL: 145 mg/dL
  RALB: 2.5 g/dL
  TBIL: 0.078 mg/dL
  TC: 80.8 mg/dL
  TG: 54.6 mg/dL
  TP: 5.3 g/dL
  gamma-GTP: 1 IU/L
[2]
  TERMINAL_BW: 204 g
  APTT: 18.7 s
  Bas: 0.2%
  Eos: 1%
  Fbg: 279.6 mg/dL
  Hb: 13.6 g/dL
  Ht: 41.9%
  Lym: 80.4%
  MCH: 20.6 pg
  MCHC: 32.5%
  MCV: 63.6 fL
  Mono: 2%
  Neu: 15.8%
  PT: 13.1 s
  Plat: 131.1 x10_4/uL
  RBC: 659.4 x10_4/ul
  Ret: 8.1%
  WBC: 84.4 x10_2/uL
  KIDNEY_L: 0.9 g
  KIDNEY_R: 0.9 g
  KIDNEY_TOTAL: 1.9 g
  LIVER: 8.8 g
  A/G: 0.9
  ALP: 1197.4 IU/L
  ALT: 36.6 IU/L
  AST: 66.4 IU/L
  BUN: 8.4 mg/dL
  CRE: 0.2 mg/dL
  Ca: 10.7 mg/dL
  Cl: 105.6 meq/L
  DBIL: 0.01 mg/dL
  GLC: 172.6 mg/dL
  IP: 9.5 mg/dL
  K: 4.1 meq/L
  LDH: 49 IU/L
  Na: 141.2 meq/L
  PL: 138.4 mg/dL
  RALB: 2.5 g/dL
  TBIL: 0.078 mg/dL
  TC: 78.8 mg/dL
  TG: 46.6 mg/dL
  TP: 5.2 g/dL
  gamma-GTP: 1 IU/L
[3]
  TERMINAL_BW: 202.2 g
  APTT: 15.8 s
  Bas: 0.2%
  Eos: 1.2%
  Fbg: 284 mg/dL
  Hb: 13.3 g/dL
  Ht: 40.1%
  Lym: 75.6%
  MCH: 21 pg
  MCHC: 33%
  MCV: 63.6 fL
  Mono: 2%
  Neu: 20.8%
  PT: 13.3 s
  Plat: 121 x10_4/uL
  RBC: 633 x10_4/ul
  Ret: 8.3%
  WBC: 72.5 x10_2/uL
  KIDNEY_L: 0.9 g
  KIDNEY_R: 1 g
  KIDNEY_TOTAL: 1.9 g
  LIVER: 7.9 g
  A/G: 0.9
  ALP: 1161.6 IU/L
  ALT: 38.6 IU/L
  AST: 73.8 IU/L
  BUN: 7.6 mg/dL
  CRE: 0.1 mg/dL
  Ca: 10.7 mg/dL
  Cl: 106.2 meq/L
  DBIL: 0 mg/dL
  GLC: 166.8 mg/dL
  IP: 9.4 mg/dL
  K: 4.3 meq/L
  LDH: 60.8 IU/L
  Na: 141 meq/L
  PL: 132.8 mg/dL
  RALB: 2.5 g/dL
  TBIL: 0.078 mg/dL
  TC: 78.4 mg/dL
  TG: 33.2 mg/dL
  TP: 5.2 g/dL
  gamma-GTP: 1 IU/L
[4]
  TERMINAL_BW: 220 g
  APTT: 17.4 s
  Bas: 0.2%
  Eos: 1.2%
  Fbg: 296 mg/dL
  Hb: 13.3 g/dL
  Ht: 40.5%
  Lym: 74.2%
  MCH: 21.3 pg
  MCHC: 32.9%
  MCV: 64.9 fL
  Mono: 3%
  Neu: 20.4%
  PT: 12.9 s
  Plat: 123.6 x10_4/uL
  RBC: 624.8 x10_4/ul
  Ret: 7.7%
  WBC: 89 x10_2/uL
  KIDNEY_L: 1 g
  KIDNEY_R: 1 g
  KIDNEY_TOTAL: 2 g
  LIVER: 10.3 g
  A/G: 0.9
  ALP: 1544.6 IU/L
  ALT: 44.6 IU/L
  AST: 67 IU/L
  BUN: 15.2 mg/dL
  CRE: 0.2 mg/dL
  Ca: 11.2 mg/dL
  Cl: 104.8 meq/L
  DBIL: 0.01 mg/dL
  GLC: 171.2 mg/dL
  IP: 8.3 mg/dL
  K: 4 meq/L
  LDH: 78 IU/L
  Na: 141.6 meq/L
  PL: 162.4 mg/dL
  RALB: 2.6 g/dL
  TBIL: 0.066 mg/dL
  TC: 89.8 mg/dL
  TG: 85.4 mg/dL
  TP: 5.6 g/dL
  gamma-GTP: 1.2 IU/L
100 mg/kg, 3 h, dose level Low
  TERMINAL_BW: 205.3 g
  APTT: 21 s
  Bas: 0%
  Eos: 1%
  Fbg: 274.2 mg/dL
  Hb: 13.4 g/dL
  Ht: 41.4%
  Lym: 73%
  MCH: 20.9 pg
  MCHC: 32.3%
  MCV: 64.7 fL
  Mono: 3.4%
  Neu: 21.8%
  PT: 13.2 s
  Plat: 122.1 x10_4/uL
  RBC: 641 x10_4/ul
  Ret: 8.8%
  WBC: 90.7 x10_2/uL
  KIDNEY_L: 1 g
  KIDNEY_R: 1 g
  KIDNEY_TOTAL: 2 g
  LIVER: 9.2 g
  A/G: 0.9
  ALP: 1360.8 IU/L
  ALT: 49 IU/L
  AST: 92 IU/L
  BUN: 10.8 mg/dL
  CRE: 0.2 mg/dL
  Ca: 10.8 mg/dL
  Cl: 106.2 meq/L
  DBIL: 0.004 mg/dL
  GLC: 156.2 mg/dL
  IP: 8.5 mg/dL
  K: 4 meq/L
  LDH: 63.6 IU/L
  Na: 141.4 meq/L
  PL: 129 mg/dL
  RALB: 2.5 g/dL
  TBIL: 0.058 mg/dL
  TC: 73.4 mg/dL
  TG: 48 mg/dL
  TP: 5.3 g/dL
  gamma-GTP: 1.2 IU/L
100 mg/kg, 6 h, dose level Low
  TERMINAL_BW: 204.4 g
  APTT: 16.5 s
  Bas: 0%
  Eos: 1%
  Fbg: 278.2 mg/dL
  Hb: 13.5 g/dL
  Ht: 41.6%
  Lym: 75%
  MCH: 20.9 pg
  MCHC: 32.3%
  MCV: 64.8 fL
  Mono: 2.2%
  Neu: 20.4%
  PT: 13.2 s
  Plat: 124.3 x10_4/uL
  RBC: 642.6 x10_4/ul
  Ret: 9.1%
  WBC: 98.3 x10_2/uL
  KIDNEY_L: 0.9 g
  KIDNEY_R: 0.9 g
  KIDNEY_TOTAL: 1.8 g
  LIVER: 8.8 g
  A/G: 0.9
  ALP: 1403.8 IU/L
  ALT: 40.4 IU/L
  AST: 71.8 IU/L
  BUN: 10.4 mg/dL
  CRE: 0.2 mg/dL
  Ca: 10.9 mg/dL
  Cl: 106.8 meq/L
  DBIL: 0.006 mg/dL
  GLC: 137.4 mg/dL
  IP: 9.8 mg/dL
  K: 3.9 meq/L
  LDH: 50.2 IU/L
  Na: 141.8 meq/L
  PL: 134 mg/dL
  RALB: 2.5 g/dL
  TBIL: 0.06 mg/dL
  TC: 72.4 mg/dL
  TG: 64.2 mg/dL
  TP: 5.2 g/dL
  gamma-GTP: 1.2 IU/L
100 mg/kg, 9 h, dose level Low
  TERMINAL_BW: 201.2 g
  APTT: 16.5 s
  Bas: 0%
  Eos: 1.2%
  Fbg: 288.4 mg/dL
  Hb: 13.6 g/dL
  Ht: 41.6%
  Lym: 72.6%
  MCH: 20.9 pg
  MCHC: 32.7%
  MCV: 63.9 fL
  Mono: 1.6%
  Neu: 24%
  PT: 13.5 s
  Plat: 122.2 x10_4/uL
  RBC: 650.4 x10_4/ul
  Ret: 8.3%
  WBC: 89.4 x10_2/uL
  KIDNEY_L: 0.9 g
  KIDNEY_R: 0.9 g
  KIDNEY_TOTAL: 1.8 g
  LIVER: 7.9 g
  A/G: 0.9
  ALP: 1515.4 IU/L
  ALT: 39.2 IU/L
  AST: 80.4 IU/L
  BUN: 10 mg/dL
  CRE: 0.2 mg/dL
  Ca: 10.7 mg/dL
  Cl: 107.4 meq/L
  DBIL: 0.002 mg/dL
  GLC: 158.2 mg/dL
  IP: 9.7 mg/dL
  K: 4.1 meq/L
  LDH: 66.6 IU/L
  Na: 142.4 meq/L
  PL: 122.8 mg/dL
  RALB: 2.5 g/dL
  TBIL: 0.064 mg/dL
  TC: 69.4 mg/dL
  TG: 34.6 mg/dL
  TP: 5.2 g/dL
  gamma-GTP: 1 IU/L
[5]
  TERMINAL_BW: 220.2 g
  APTT: 17.7 s
  Bas: 0.2%
  Eos: 1%
  Fbg: 273.6 mg/dL
  Hb: 13.3 g/dL
  Ht: 41%
  Lym: 80.4%
  MCH: 20.8 pg
  MCHC: 32.5%
  MCV: 64.1 fL
  Mono: 2.4%
  Neu: 15.4%
  PT: 12.9 s
  Plat: 129 x10_4/uL
  RBC: 640.4 x10_4/ul
  Ret: 7.7%
  WBC: 82.4 x10_2/uL
  KIDNEY_L: 1 g
  KIDNEY_R: 1 g
  KIDNEY_TOTAL: 2 g
  LIVER: 10.2 g
  A/G: 0.9
  ALP: 1457.6 IU/L
  ALT: 46.4 IU/L
  AST: 73 IU/L
  BUN: 14.6 mg/dL
  CRE: 0.2 mg/dL
  Ca: 11.2 mg/dL
  Cl: 104.4 meq/L
  DBIL: 0.008 mg/dL
  GLC: 174.6 mg/dL
  IP: 8.7 mg/dL
  K: 4.2 meq/L
  LDH: 69 IU/L
  Na: 142 meq/L
  PL: 148.2 mg/dL
  RALB: 2.5 g/dL
  TBIL: 0.066 mg/dL
  TC: 80.6 mg/dL
  TG: 70.8 mg/dL
  TP: 5.3 g/dL
  gamma-GTP: 1.2 IU/L
